Measurements taken from US4552882A, “7-(1-Pyrrolyl) derivatives of 1-ethyl-1,4-dihydro-4-oxoquinoline-3-carboxylic acids and 1-ethyl-1,4-dihydro-4-oxo-1,8-naphthyridine-3-carboxylic acids and their use as antimicrobial agents” (Provesan, SA, priority 1983, dated 1985).
In brackets after ≈: the same amount, converted by molar mass.

Tests used:
Test in all cases: MIC in vitro
Type in all cases: cell-based
[1] = system: Enterobacter aerogenes ATCC 15038; settings: Klebsiella aerogenes, ATCC15038, Dextrose agar, 37° C., 20 hours
Excerpt: (§1) (G. L. Daquet and Y. A. Chabbect, Techniques en bacteriologie (Bacteriological techniques), vol. 3, Flammarion Medecine Sciences, Paris, 1972 and W. B. Hugo and A. D. Rusell, Pharmaceutical Microbiology, Blackwell Scientific Publications, London, (1977)). Antibiotic medium no. 1 (seed agar) (Oxoid CM 327) Tryptone-soya broth (Oxoid CM 129) Ringer's physiological solution 1/4 (oxoid BR 52) Dextrose agar (BBL-11165) 0.1 N NaOH "Enterobacter aerogenes" ATCC 15038 Each of the microorganisms is seeded by streaking in tubes of Antibiotic medium No. 1 (seed agar), which are then incubated at 37° C. for 20 hours. Using a culture loop, the cultures are then seeded in tryptone-soyabroth and incubated at 37° C. for 20 hours. The culture obtained is diluted to 1/4 with Ringer's physiological solution, so as to obtain a standardized suspension of 10^7 -10^9 cfu/ml for each organism. Starting from a solution of 1,000 μg/ml in 0.1 N NaOH, each product is diluted in Dextrose agar (previously melted and maintained at 50° C.), with successive dilutions so as to obtain the following concentrations: 64--32--16--8--4--2--1--0.5--0.25--0.125 μg of derivative/ml medium. For each product, the solution of each concentration is subsequently distributed into Petri dishes 10 cm in diameter, with 10 ml of medium per dish and the same number of dishes as microorganisms to be tested. As soon as the medium has cooled, the dishes are seeded with the inoculations using 0.4 ml of inoculation per dish. They are spread with a Driglasky loop and the supernatant is removed. The seeded dishes are incubated at 37° C. for 20 hours.

[2] = system: Staphylococcus aureus ATCC 25178; settings: ATCC25178, Dextrose agar, 37° C., 20 hours
Method: as §1, with “"Staphylococcus aureus"” for “"Enterobacter aerogenes"”, “25178” for “15038”

[3] = system: Streptococcus faecalis ATCC 10541; settings: Enterococcus faecalis, ATCC10541, Dextrose agar, 37° C., 20 hours
Excerpt: as §1, with “"Streptococcus faecalis"” for “"Enterobacter aerogenes"”, “10541” for “15038”

| SMILES | MIC [1] [µg/mL] | MIC [2] [µg/mL] | MIC [3] [µg/mL] |
| --- | --- | --- | --- |
| CCn1cc(C(=O)O)c(=O)c2ccc(-n3cccc3)cc21 [Example 1, 7-(1-pyrrolyl)-1-ethyl-1,4-dihydro-4-oxo-3-quinolinecarboxylic acid] | > 64 | 1 (≈ 3.54 µM) | 16 (≈ 56.7 µM) |
| CCn1cc(C(=O)O)c(=O)c2cc(F)c(-n3cccc3)cc21 [Example 2, 6-fluoro-7-(1-pyrrolyl)-1-ethyl-1,4-dihydro-4-oxo-3-quinolinecarboxylic acid] | 8 (≈ 26.6 µM) | 0.25 (≈ 0.833 µM) | 1 (≈ 3.33 µM) |
| CCn1cc(C(=O)O)c(=O)c2ccc(-n3cccc3)nc21 [Example 3, 1-ethyl-1,4-dihydro-4-oxo-7-(1-pyrrolyl)-1,8-naphthyridine-3-carboxylic acid] | > 64 | 4 (≈ 14.1 µM) | 32 (≈ 113 µM) |
| CCn1cc(C(=O)O)c(=O)c2cc(F)c(-n3cccc3)nc21 [Example 4, 1-ethyl-1,4-dihydro-4-oxo-6-fluoro-7-(1-pyrrolyl)-1,8-naphthyridine-3-carboxylic acid] | 4 (≈ 13.3 µM) | 0.5 (≈ 1.66 µM) | 8 (≈ 26.6 µM) |
| CCn1cc(C(=O)O)c(=O)c2cnc(N3CCNCC3)nc21 [Pipemidic acid, reference compound] | 32 (≈ 105 µM) | 64 (≈ 211 µM) | > 64 |
